According to the supplement of paper PMC10307832:

How the values were obtained:
Assay in all cases: relative viability (nuclei count vs DMSO), 5 days (fraction); higher = more cells survive
[1] = compound: COc1cc2nccc(Oc3ccc(NC(=O)C4(C(=O)Nc5ccc(F)cc5)CC4)cc3)c2cc1OC [Cabozantinib] + O=C(c1cc(Cc2n[nH]c(=O)c3ccccc23)ccc1F)N1CCN(C(=O)C2CC2)CC1 [Olaparib] (partner 8 µM)
Procedure, shortened: (§1)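 Relative viability equals treated-well nuclei counts divided by vehicle-well nuclei counts. Counts came from 4× images of lung cancer cell lines grown in 1536-well plates for 5 days after pin-tool dosing on the day after seeding. Dosing used one drug alone or a fixed anchor-drug dose plus five library-drug doses (not always all listed) in √10 steps, and values are medians of duplicate plates.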

[2] = compound: COc1cc2nccc(Oc3ccc(NC(=O)C4(C(=O)Nc5ccc(F)cc5)CC4)cc3)c2cc1OC [Cabozantinib] + N=C(N)NC(=N)NCCc1ccccc1 [Phenformin] (partner 250 µM)
Procedure, shortened: as §1

[3] = compound: COc1cc2nccc(Oc3ccc(NC(=O)C4(C(=O)Nc5ccc(F)cc5)CC4)cc3)c2cc1OC [Cabozantinib] + Nc1nc2[nH]cc(CCc3ccc(C(=O)N[C@@H](CCC(=O)O)C(=O)O)cc3)c2c(=O)[nH]1 [Pemetrexed] (partner 0.2 µM)
Procedure, shortened: as §1

[4] = compound: C1=CC(=CC=C1NC(=S)NNC2=C(C=C(C=C2[N+](=O)[O-])C(F)(F)F)[N+](=O)[O-])F [Kobe2602] + O=C(c1cc(Cc2n[nH]c(=O)c3ccccc23)ccc1F)N1CCN(C(=O)C2CC2)CC1 [Olaparib] (partner 8 µM)
Procedure, shortened: as §1

Row | Cell Line | relative viability ([1]; first compound 0.02 µM) | relative viability ([1]; first compound 0.06325 µM) | relative viability ([1]; first compound 0.2 µM) | relative viability ([1]; first compound 0.6325 µM) | relative viability ([1]; first compound 2 µM) | relative viability ([2]; first compound 0.02 µM) | relative viability ([2]; first compound 0.06325 µM) | relative viability ([2]; first compound 0.2 µM) | relative viability ([2]; first compound 0.6325 µM) | relative viability ([2]; first compound 2 µM) | relative viability ([3]; first compound 0.02 µM) | relative viability ([3]; first compound 0.06325 µM) | relative viability ([3]; first compound 0.2 µM) | relative viability ([3]; first compound 0.6325 µM) | relative viability ([3]; first compound 2 µM) | relative viability ([4]; first compound 0.2 µM) | relative viability ([4]; first compound 0.6325 µM) | relative viability ([4]; first compound 2 µM) | relative viability ([4]; first compound 6.325 µM) | relative viability ([4]; first compound 20 µM)
1 | EKVX | 1.04 | 1.01 | 0.792 | 0.969 | 0.805 | 0.239 | 0.253 | 0.223 | 0.222 | 0.23 | 0.376 | 0.477 | 0.352 | 0.467 | 0.461 | 0.749 | 0.792 | 0.864 | 0.786 | 0.808
2 | NCI-H650 | 0.38 | 0.373 | 0.398 | 0.386 | 0.35 | – | 0.497 | 0.454 | 0.465 | 0.404 | 0.792 | 1.07 | 0.964 | 0.941 | 0.916 | 0.4 | 0.443 | 0.37 | 0.403 | 0.401
3 | NCI-H1734 | 0.67 | 0.646 | 0.711 | 0.635 | 0.584 | 0.368 | 0.395 | 0.403 | 0.406 | 0.355 | 0.396 | 0.435 | 0.413 | 0.445 | 0.397 | 0.601 | 0.626 | 0.635 | 0.642 | 0.665
4 | LOU-NH91 | 0.96 | 0.984 | 0.681 | 0.903 | 0.925 | 0.602 | 0.931 | – | 0.792 | 0.731 | 0.424 | 0.366 | 0.487 | 0.371 | 0.413 | 0.9 | 0.922 | 0.875 | 0.917 | 0.819
5 | SK-MES-1 | 0.767 | 0.845 | 0.689 | 0.684 | 0.694 | 0.701 | 0.688 | 0.705 | 0.667 | 0.631 | 1.02 | 1.01 | 1 | 0.904 | 0.937 | 0.674 | 0.643 | 0.635 | 0.551 | 0.281
6 | NCI-H2170 | 0.66 | 0.682 | 0.538 | 0.576 | 0.684 | 0.468 | 0.418 | 0.425 | 0.365 | 0.353 | 0.28 | 0.264 | 0.247 | 0.274 | 0.311 | 0.561 | 0.574 | 0.53 | 0.597 | 0.625
7 | NCI-H460 | 0.443 | 0.492 | 0.445 | 0.46 | 0.422 | 0.535 | 0.563 | 0.576 | 0.512 | 0.508 | 0.0695 | 0.0609 | 0.0626 | 0.0622 | 0.0696 | 0.427 | 0.416 | 0.455 | 0.423 | 0.43
8 | SK-LU-1 | 0.605 | 0.559 | 0.488 | 0.437 | 0.38 | 0.587 | 0.791 | 0.552 | 0.476 | 0.438 | 1.1 | 1.1 | 0.9 | 0.926 | 0.9 | 0.463 | 0.471 | 0.494 | 0.457 | 0.523
9 | EPLC-272H | 0.906 | 0.787 | 0.648 | 0.884 | 0.597 | 0.269 | 0.331 | 0.24 | 0.357 | 0.291 | 0.368 | 0.37 | 0.301 | 0.318 | 0.282 | 0.905 | 0.744 | 0.578 | 0.663 | 0.943
10 | A-427 | 0.715 | 0.709 | 0.714 | 0.761 | 0.704 | 0.374 | 0.321 | 0.427 | 0.359 | 0.232 | 0.949 | 1.04 | 0.995 | 1.02 | 1 | 0.74 | 0.726 | 0.73 | 0.785 | 0.701
